According to patent US20030027720A1, “Synergistic fungicidal composition comprising a compound analogous to strobilurin” (priority 1995, published 2003):

Experiments:
Pyrenophora teres = assay: In vivo test, helminthosporium disease of barley, preventive treatment 7 days before infection (Colby); conditions: graded 10 days after infection
Procedure: In vivo test of the combination of ICIA5504 with iprodione with respect to helminthosporium disease of barley by preventive treatment 7 days before infection.
The fungicides are used at the following doses:
The young barley plants (var. Express) which are 12 days old (first leaf developed stage) are treated with the experimental fungicides at the doses indicated above in a slurry volume of 250 l/ha (3 repeats/dose). Seven days after the treatment, the young barley plants are infected with a suspension of Pyrenophora teres spores (10,000 spores/ml). The young plants are incubated for 48 hours at 20° C., 100% relative humidity (RH). Next, the plants are transferred to a greenhouse at 20° C., 70-80% RH under natural light. The grading of the disease is carried out ten days after infection by estimating the leaf surface area contaminated on the first leaf (10 young plants/pot).
By comparing with the control (non-treated-contaminated) a percentage efficacy is calculated. The synergy is then quantified by using the Colby model.

Alternaria brassicae = assay: In vivo test, alternaria disease of radish, preventive treatment 24 hours before infection (Tammes isobole); conditions: radish seedlings, spray 24 h before infection, reading 6 days after infection
Procedure: In vivo test of the combination of ICIA5504 with iprodione with respect to alternaria disease of radish (Alternaria brassicae) by preventive treatment 24 hours before infection. A suspension comprising the compounds A and B in a liquid mixture composed of a surface-active agent (oleate of polyoxyethylenated derivative of sorbitan) and water is prepared. The component B is iprodione; the A/B ratio is 0.25, 0.5, 1, 2 or 4. Radish seedlings (variety Pernot), are grown in small pots. When these seedlings are 10-12 days old (cotyledon, 1st leaf stage), they are treated by spraying with the above suspension. […] After 24 hours, each seedling is infected by spraying with an aqueous suspension of spores of Alternaria brassica, which suspension is obtained from an in vitro culture of the fungus. These spores are suspended at a concentration of 40,000 units per cm^3 of inoculum. Infection is carried out by spraying the inoculum at the top surface of the leaves. The infected seedlings are then incubated for six days at 18-20° C. at 90-100% relative humidity under natural light. Reading is carried out 6 days after infection, in comparison with the control seedlings. […]

## CO/C=C(/C(=O)OC)c1ccccc1Oc1cc(Oc2ccccc2C#N)ncn1 [ICIA5504, methyl (E)-2-{2-[6-(2-cyanophenoxy)pyrimidin-4-yloxy]phenyl}-3-methoxyacrylate]
Pyrenophora teres; ICIA5504 1.5 g/ha alone
  Observed efficacy: 0%
Pyrenophora teres; ICIA5504 3.1 g/ha alone
  Observed efficacy: 17.54%
Pyrenophora teres; ICIA5504 6.2 g/ha alone
  Observed efficacy: 34.21%
Pyrenophora teres; ICIA5504 12.5 g/ha alone
  Observed efficacy: 59.21%
Pyrenophora teres; ICIA5504 25 g/ha alone
  Observed efficacy: 76.75%
Pyrenophora teres; ICIA5504 50 g/ha alone
  Observed efficacy: 83.86%
Pyrenophora teres; ICIA5504 100 g/ha alone
  Observed efficacy: 81.67%
Pyrenophora teres; ICIA5504 200 g/ha alone
  Observed efficacy: 92.72%
Alternaria brassicae
  dose of A alone necessary for the destruction of 80% of the parasite: 115 ppm (mg/l)

## CC(C)NC(=O)N1CC(=O)N(c2cc(Cl)cc(Cl)c2)C1=O [iprodione]
Pyrenophora teres; iprodione 12.5 g/ha alone
  Observed efficacy: 15.79%
Pyrenophora teres; iprodione 25 g/ha alone
  Observed efficacy: 7.02%
Pyrenophora teres; iprodione 50 g/ha alone
  Observed efficacy: 37.72%
Pyrenophora teres; iprodione 100 g/ha alone
  Observed efficacy: 35.09%
Pyrenophora teres; iprodione 200 g/ha alone
  Observed efficacy: 47.37%
Pyrenophora teres; iprodione 400 g/ha alone
  Observed efficacy: 50.88%
Pyrenophora teres; iprodione 800 g/ha alone
  Observed efficacy: 59.65%
